Experimental findings from ChEMBL document CHEMBL5346875, “Annual review of KRAS inhibitors in 2022” (Eur J Med Chem, 2023) are described below.

The test system of experiment [1] is NCI-H358. Briefly: Antiproliferative activity against human NCI-H358 cells harboring KRAS G12C mutant assessed as inhibition of cell growth by resazurin dye based assay. The experiment is classed as functional.
Experiment [2] is described as follows: Inhibition of ERK phosphorylation in human NCI-H358 cells harboring KRAS G12C mutant by Western blot analysis. In kind it is cell-based.
Experiment [3] has as its system BaF3. Briefly: Antiproliferative activity against mouse BaF3 cells harboring KRAS G12S mutant assessed as inhibition of cell growth incubated for 72 hrs by CellTiter-Glo luminescent assay. The experiment is classed as functional, cell-based. Particulars: BaF3, 72 h.
Experiment [4] is described as follows: Antiproliferative activity against human KMS-20 cells harboring KRAS G12S mutant assessed as inhibition of cell growth incubated for 72 hrs by CellTiter-Glo luminescent assay. The experiment is classed as functional, cell-based. Particulars: KMS-20, 72 h.
Experiment [5] concerns BaF3. Nature of the experiment: Antiproliferative activity against mouse BaF3 cells harboring wild type KRAS assessed as inhibition of cell growth incubated for 72 hrs by CellTiter-Glo luminescent assay. In kind it is functional, cell-based. To be noted: BaF3, 72 h.
The subject of experiment [6] is GTPase KRas (Homo sapiens), P01116 [G12S]. Nature of the experiment: Covalent modification of GDP-bound recombinant human KRAS G12S mutant at 10 uM incubated for 10 mins by mass spectrometry analysis relative to control.
The target in experiment [7] is GTPase KRas (Homo sapiens, UniProt P01116, G12S). Briefly: Inhibition of GTP-bound KRAS G12S mutant in human A549 cells incubated for 2 hrs by immunoblot analysis. In kind it is cell-based.
Chain of GTPase KRas (P01116 whole entry G12S): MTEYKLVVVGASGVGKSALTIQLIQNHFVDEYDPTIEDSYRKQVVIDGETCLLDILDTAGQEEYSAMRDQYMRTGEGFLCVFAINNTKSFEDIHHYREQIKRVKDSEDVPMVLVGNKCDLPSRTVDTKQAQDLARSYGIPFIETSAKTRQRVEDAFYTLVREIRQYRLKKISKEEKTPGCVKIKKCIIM
Experiment [8] deals with NCI-H358. Nature of the experiment: Antiproliferative activity against human NCI-H358 cells harboring KRAS G12C mutant assessed as inhibition of cell growth. In kind it is functional, cell-based.
The target of experiment [9] is Protein cereblon/GTPase KRas (Homo sapiens, UniProt P01116+Q96SW2, G12C). Nature of the experiment: PROTAC activity at CRBN/KRAS G12C mutant in human NCI-H358 cells assessed as induction of KRAS G12C degradation. The experiment is classed as cell-based.
Chain of Protein cereblon/GTPase KRas (P01116 whole entry G12C, stated change not applied): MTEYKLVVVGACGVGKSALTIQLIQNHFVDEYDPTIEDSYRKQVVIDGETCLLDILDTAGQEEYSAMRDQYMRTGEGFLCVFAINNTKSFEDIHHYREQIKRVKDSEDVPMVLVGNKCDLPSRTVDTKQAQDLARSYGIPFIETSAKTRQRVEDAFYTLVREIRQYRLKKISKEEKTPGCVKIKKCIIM
Chain of Protein cereblon/GTPase KRas (Q96SW2 whole entry, stated change not applied): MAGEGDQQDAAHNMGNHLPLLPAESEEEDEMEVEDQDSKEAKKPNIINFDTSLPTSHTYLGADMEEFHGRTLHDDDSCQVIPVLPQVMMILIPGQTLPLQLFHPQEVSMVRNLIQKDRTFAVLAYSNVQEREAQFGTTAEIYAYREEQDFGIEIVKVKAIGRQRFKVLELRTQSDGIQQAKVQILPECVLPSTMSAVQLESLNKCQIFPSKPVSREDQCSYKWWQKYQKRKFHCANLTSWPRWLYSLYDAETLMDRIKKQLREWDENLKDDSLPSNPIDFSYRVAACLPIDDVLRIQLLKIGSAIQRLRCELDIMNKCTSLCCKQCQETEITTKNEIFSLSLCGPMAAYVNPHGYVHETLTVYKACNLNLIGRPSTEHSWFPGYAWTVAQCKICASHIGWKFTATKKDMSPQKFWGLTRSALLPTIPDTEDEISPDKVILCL
The test system of experiment [10] is GTPase KRas (Homo sapiens), P01116 [G12S]. Briefly: Covalent modification of GDP-bound recombinant human KRAS G12S mutant at 10 uM incubated for 1 hr by mass spectrometry analysis relative to control.
Chain of GTPase KRas (Homo sapiens), P01116 [G12S] (P01116 whole entry G12S): as the sequence (P01116 whole entry G12S) above
Experiment [11] shares this test system. Briefly: Covalent modification of GDP-bound recombinant human KRAS G12S mutant at 10 uM incubated for 12 hrs by mass spectrometry analysis relative to control.
Experiment [12] has as its system NCI-H23. Briefly: Antiproliferative activity against human NCI-H23 cells harboring KRAS G12C mutant assessed as inhibition of cell growth. In kind it is functional, cell-based.

In the case of `C=CC(=O)N1CC2(CC(n3nc(-c4ccc5c(cnn5C)c4)c(-c4c(Cl)c(C)cc5[nH]ncc45)c3C)C2)C1` [OPNURASIB], the IC50 worked out at 0.019 µM in experiment [1] and 0.018 µM in experiment [2].

For `O=C1O[C@H]2CN(c3nc(OCC45CCCN4CCC5)nc4c(F)c(-c5cccc6cccc(Cl)c56)ncc34)CC[C@@H]12`, the IC50 in experiment [3] came to 2.4 µM; in experiment [4], 7.5 µM; in experiment [5], 12.5 µM; in experiment [7], 3 µM. The Activity in experiment [6] was found to be 100%.

With `COc1cc(Cl)c(-c2cc(Cl)ccc2Cl)cc1C(=O)N1CCN(C(=O)/C=C\C(=O)NCCCCCCNc2cccc3c2C(=O)N(C2CCC(=O)NC2=O)C3=O)CC1` (stereo not drawn), the half-inhibitory concentration (IC50) in experiment [8] stood at 17.4 µM. The 50% degradation concentration (DC50) in [9] came to 1.25 µM.

As for `CN1CCC[C@H]1COc1nc2c(c(N3CCC4C(=O)OC4C3)n1)CCN(c1cccc3cccc(Cl)c13)C2` (stereo partly drawn), the Activity came out at 64% in experiment [10] and 100% in experiment [11].

For `C=C(C(=O)N1CCN(c2ncnc3c(F)c(-c4cc(Cl)ccc4OC)c(Cl)cc23)[C@H](C)C1)C(F)(F)F`, the figures for the concentration for half-maximal inhibition (IC50) in experiment [8] and in [12] were 0.78 µM and 1.55 µM, respectively.
